Results taken from ChEMBL document CHEMBL3885861, “Open TG-GATES”.

Species: Rattus norvegicus
Test: Open TG-GATES - Regimen: Single
Assay type: toxicity, organism-based, Sprague-Dawley
Parameters: regimen Single, gender Male, age 6 weeks
Conditions: in vivo, po, 1000 mg/kg, route gavage, dose level High; for APTT / Bas / Eos / Fbg / Hb / Ht / Lym / MCH / MCHC / MCV / Mono / Neu / PT / Plat / RBC / Ret / WBC: tissue Blood; for KIDNEY_L / KIDNEY_R / KIDNEY_TOTAL: tissue Kidney; for LIVER: tissue Liver; for A/G / ALP / ALT / AST / BUN / CRE / Ca / Cl / DBIL / GLC / IP / K / LDH / Na / PL / RALB / TBIL / TC / TG / TP / gamma-GTP: tissue Plasma

Work on `O=C(OC[C@H]1O[C@@H](OC(=O)c2cc(O)c(O)c(OC(=O)c3cc(O)c(O)c(O)c3)c2)[C@H](OC(=O)c2cc(O)c(O)c(OC(=O)c3cc(O)c(O)c(O)c3)c2)[C@@H](OC(=O)c2cc(O)c(O)c(OC(=O)c3cc(O)c(O)c(O)c3)c2)[C@@H]1OC(=O)c1cc(O)c(O)c(OC(=O)c2cc(O)c(O)c(O)c2)c1)c1cc(O)c(O)c(OC(=O)c2cc(O)c(O)c(O)c2)c1` [TANNIC ACID] yielded a TERMINAL_BW (3 h) of 189.4 g, an APTT (3 h) of 17.2 s and a Bas (3 h) of 0%. For the same compound, the Eos (3 h) was 1%, the Fbg (3 h) was 221.2 mg/dL and the Hb (3 h) was 13 g/dL. The Ht (3 h) was 38.9%, the Lym (3 h) was 81.6% and the MCH (3 h) was 21.7 pg. It also gave an MCHC (3 h) of 33.3%, an MCV (3 h) of 65.1 fL and a Mono (3 h) of 4.8%. It also gave a Neu (3 h) of 12.8%, a PT (3 h) of 11.9 s and a Plat (3 h) of 110.6 x10_4/uL. The RBC (3 h) was 597.4 x10_4/ul, the Ret (3 h) was 10.3% and the WBC (3 h) was 104.1 x10_2/uL. It also gave a KIDNEY_L (3 h) of 0.9 g, a KIDNEY_R (3 h) of 0.9 g and a KIDNEY_TOTAL (3 h) of 1.8 g. It also gave an LIVER (3 h) of 8.5 g, an A/G (3 h) of 2 and an ALP (3 h) of 805 IU/L. It also gave an ALT (3 h) of 39.6 IU/L, an AST (3 h) of 69.6 IU/L and a BUN (3 h) of 12.2 mg/dL. The CRE (3 h) was 0.4 mg/dL, the Ca (3 h) was 10.8 mg/dL and the Cl (3 h) was 104.6 meq/L. For the same compound, the DBIL (3 h) was 0.016 mg/dL, the GLC (3 h) was 191.4 mg/dL and the IP (3 h) was 10.2 mg/dL. The K (3 h) was 4.9 meq/L, the LDH (3 h) was 101.8 IU/L and the Na (3 h) was 138.2 meq/L. It also gave a PL (3 h) of 128.2 mg/dL, an RALB (3 h) of 3.7 g/dL and a TBIL (3 h) of 0.5 mg/dL. For the same compound, the TC (3 h) was 72.8 mg/dL, the TG (3 h) was 35.8 mg/dL and the TP (3 h) was 5.5 g/dL. It also gave a gamma-GTP (3 h) of 1.2 IU/L, a TERMINAL_BW (6 h) of 183.9 g and an APTT (6 h) of 16.7 s. The Bas (6 h) was 0%, the Eos (6 h) was 1% and the Fbg (6 h) was 211 mg/dL. For the same compound, the Hb (6 h) was 13.5 g/dL, the Ht (6 h) was 40.6% and the Lym (6 h) was 76.2%. It also gave an MCH (6 h) of 22 pg, an MCHC (6 h) of 33.3% and an MCV (6 h) of 66.1 fL. The Mono (6 h) was 7%, the Neu (6 h) was 16.2% and the PT (6 h) was 12 s. For the same compound, the Plat (6 h) was 115.1 x10_4/uL, the RBC (6 h) was 613.8 x10_4/ul and the Ret (6 h) was 9.7%. The WBC (6 h) was 101 x10_2/uL, the KIDNEY_L (6 h) was 0.9 g and the KIDNEY_R (6 h) was 0.9 g. For the same compound, the KIDNEY_TOTAL (6 h) was 1.8 g, the LIVER (6 h) was 7.5 g and the A/G (6 h) was 1.8. For the same compound, the ALP (6 h) was 682.8 IU/L, the ALT (6 h) was 41.4 IU/L and the AST (6 h) was 68.8 IU/L. For the same compound, the BUN (6 h) was 11.4 mg/dL, the CRE (6 h) was 0.4 mg/dL and the Ca (6 h) was 10.6 mg/dL. The Cl (6 h) was 105.8 meq/L, the DBIL (6 h) was 0.008 mg/dL and the GLC (6 h) was 183.4 mg/dL. For the same compound, the IP (6 h) was 11 mg/dL, the K (6 h) was 5 meq/L and the LDH (6 h) was 81.4 IU/L. It also gave a Na (6 h) of 138.8 meq/L, a PL (6 h) of 113.6 mg/dL and an RALB (6 h) of 3.4 g/dL. It also gave a TBIL (6 h) of 0.7 mg/dL, a TC (6 h) of 65.2 mg/dL and a TG (6 h) of 22.2 mg/dL. It also gave a TP (6 h) of 5.3 g/dL, a gamma-GTP (6 h) of 1.2 IU/L and a TERMINAL_BW (9 h) of 185.5 g. For the same compound, the APTT (9 h) was 16.9 s, the Bas (9 h) was 0% and the Eos (9 h) was 1%. It also gave a Fbg (9 h) of 221 mg/dL, a Hb (9 h) of 13.1 g/dL and a Ht (9 h) of 39.1%. The Lym (9 h) was 73%, the MCH (9 h) was 22.3 pg and the MCHC (9 h) was 33.6%. For the same compound, the MCV (9 h) was 66.5 fL, the Mono (9 h) was 8% and the Neu (9 h) was 18.4%. It also gave a PT (9 h) of 12.3 s, a Plat (9 h) of 119.4 x10_4/uL and an RBC (9 h) of 589.2 x10_4/ul. It also gave a Ret (9 h) of 9.2%, a WBC (9 h) of 87.8 x10_2/uL and a KIDNEY_L (9 h) of 0.9 g. It also gave a KIDNEY_R (9 h) of 0.8 g, a KIDNEY_TOTAL (9 h) of 1.7 g and an LIVER (9 h) of 7.1 g. For the same compound, the A/G (9 h) was 2.3, the ALP (9 h) was 772.8 IU/L and the ALT (9 h) was 42.4 IU/L. It also gave an AST (9 h) of 68.8 IU/L, a BUN (9 h) of 12.2 mg/dL and a CRE (9 h) of 0.4 mg/dL. For the same compound, the Ca (9 h) was 10.2 mg/dL, the Cl (9 h) was 106.8 meq/L and the DBIL (9 h) was 0.08 mg/dL. It also gave a GLC (9 h) of 193 mg/dL, an IP (9 h) of 10.8 mg/dL and a K (9 h) of 5 meq/L. For the same compound, the LDH (9 h) was 69 IU/L, the Na (9 h) was 137 meq/L and the PL (9 h) was 113.8 mg/dL. It also gave an RALB (9 h) of 3.7 g/dL, a TBIL (9 h) of 0.9 mg/dL and a TC (9 h) of 61.6 mg/dL. For the same compound, the TG (9 h) was 16 mg/dL, the TP (9 h) was 5.4 g/dL and the gamma-GTP (9 h) was 2 IU/L. It also gave a TERMINAL_BW (24 h) of 198.6 g, an APTT (24 h) of 17.8 s and a Bas (24 h) of 0%. It also gave an Eos (24 h) of 1%, a Fbg (24 h) of 221.4 mg/dL and a Hb (24 h) of 12.6 g/dL. It also gave a Ht (24 h) of 38.2%, a Lym (24 h) of 75.2% and an MCH (24 h) of 21.5 pg. The MCHC (24 h) was 33.1%, the MCV (24 h) was 64.8 fL and the Mono (24 h) was 9.2%. For the same compound, the Neu (24 h) was 15%, the PT (24 h) was 11.8 s and the Plat (24 h) was 104.8 x10_4/uL. The RBC (24 h) was 588.8 x10_4/ul, the Ret (24 h) was 9.3% and the WBC (24 h) was 91 x10_2/uL. It also gave a KIDNEY_L (24 h) of 0.9 g, a KIDNEY_R (24 h) of 0.9 g and a KIDNEY_TOTAL (24 h) of 1.7 g. For the same compound, the LIVER (24 h) was 9.2 g, the A/G (24 h) was 1.9 and the ALP (24 h) was 893.8 IU/L. It also gave an ALT (24 h) of 36.4 IU/L, an AST (24 h) of 62.4 IU/L and a BUN (24 h) of 18 mg/dL. The CRE (24 h) was 0.5 mg/dL, the Ca (24 h) was 10.8 mg/dL and the Cl (24 h) was 104.2 meq/L. The DBIL (24 h) was 0 mg/dL, the GLC (24 h) was 184 mg/dL and the IP (24 h) was 7.8 mg/dL. The K (24 h) was 4.6 meq/L, the LDH (24 h) was 110.8 IU/L and the Na (24 h) was 138.6 meq/L. The PL (24 h) was 133.4 mg/dL, the RALB (24 h) was 3.5 g/dL and the TBIL (24 h) was 0.3 mg/dL. The TC (24 h) was 72.2 mg/dL, the TG (24 h) was 79.6 mg/dL and the TP (24 h) was 5.4 g/dL. For the same compound, the gamma-GTP (24 h) was 0.8 IU/L.
